Laboratory results from ChEMBL document CHEMBL1201862, “PubChem BioAssay data set” (2004).
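Five compound concentrations were applied to cells in 96-well plates for 48 hours; endpoints were derived by simple linear interpolation of the resulting dose-response curve. GI50 is the concentration that inhibits growth by half.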 Active and inactive are the calls of the source. Rule as the data show it: active = GI50 up to about 1.1 µM and inactive = higher.

What was measured:
Assay in all cases: growth of human tumour cells (NCI), 48 h
786-0 = test system: 786-0
CAKI-1 = test system: CAKI-1
CCRF-CEM = test system: CCRF-CEM
EKVX = test system: EKVX
HOP-92 = test system: HOP-92
HT-29 = test system: HT-29
IGROV-1 = test system: IGROV-1
LOX IMVI = test system: LOX IMVI
MDA-N = test system: MDA-N
MOLT-4 = test system: MOLT-4
NCI-H226 = test system: NCI-H226
OVCAR-4 = test system: OVCAR-4
OVCAR-5 = test system: OVCAR-5
RXF 393 = test system: RXF 393
SF-539 = test system: SF-539
SK-MEL-2 = test system: SK-MEL-2
SK-MEL-5 = test system: SK-MEL-5
SNB-75 = test system: SNB-75
U-251 = test system: U-251
UACC-62 = test system: UACC-62

Row | SMILES | GI50 (786-0) | GI50 (CAKI-1) | GI50 (CCRF-CEM) | GI50 (EKVX) | GI50 (HOP-92) | GI50 (HT-29) | GI50 (IGROV-1) | GI50 (LOX IMVI) | GI50 (MDA-N) | GI50 (MOLT-4) | GI50 (NCI-H226) | GI50 (OVCAR-4) | GI50 (OVCAR-5) | GI50 (RXF 393) | GI50 (SF-539) | GI50 (SK-MEL-2) | GI50 (SK-MEL-5) | GI50 (SNB-75) | GI50 (U-251) | GI50 (UACC-62)
1 | CN1CCC23c4c5ccc(Oc6nnnn6-c6ccccc6)c4OC2c2[nH]c4ccccc4c2CC3(O)C1C5 (stereo not given) | 1.77 µM (inactive) | 2.16 µM (inactive) | 2.08 µM (inactive) | 9.64 µM (inactive) | 2.07 µM (inactive) | 2.38 µM (inactive) | 8.83 µM (inactive) | 1.89 µM (inactive) | 1.73 µM (inactive) | 1.84 µM (inactive) | 10.8 µM (inactive) | 2.54 µM (inactive) | 17.2 µM (inactive) | 2.28 µM (inactive) | 2.62 µM (inactive) | 1.78 µM (inactive) | 2.29 µM (inactive) | 2.59 µM (inactive) | 1.85 µM (inactive) | 1.8 µM (inactive)
2 | Cc1ccc([C@H]2CC(=O)C[C@H](c3ccc(C)cc3)C23C(=O)c2ccccc2C3=O)cc1 | 17.1 µM (inactive) | 68.2 µM (inactive) | 14 µM (inactive) | > 100 µM (inactive) | 13.6 µM (inactive) | 67.3 µM (inactive) | 40 µM (inactive) | 9.98 µM (inactive) | 52.8 µM (inactive) | 27 µM (inactive) | 34.5 µM (inactive) | 18.6 µM (inactive) | > 100 µM (inactive) | 19.1 µM (inactive) | 32.4 µM (inactive) | 31.2 µM (inactive) | 34.4 µM (inactive) | 15.8 µM (inactive) | 16.7 µM (inactive) | 37.7 µM (inactive)
3 | O=[N+]([O-])c1cccc2nc3ccccc3c(NCCCCCNc3c4ccccc4nc4cccc([N+](=O)[O-])c34)c12 | 0.0157 µM (active) | 0.0476 µM (active) | 0.0518 µM (active) | 0.133 µM (active) | 0.0199 µM (active) | 0.0195 µM (active) | 0.202 µM (active) | 0.168 µM (active) | 0.0536 µM (active) | 0.0203 µM (active) | 0.245 µM (active) | 0.153 µM (active) | 0.209 µM (active) | 0.0302 µM (active) | 0.0304 µM (active) | 0.159 µM (active) | 0.0895 µM (active) | 0.197 µM (active) | 0.0368 µM (active) | 0.153 µM (active)
4 | CC1N(O)C(c2ccccc2)C(c2ccccc2)=[N+]1[O-] (stereo not given) | > 100 µM (inactive) | > 100 µM (inactive) | > 100 µM (inactive) | > 100 µM (inactive) | > 100 µM (inactive) | > 100 µM (inactive) | > 100 µM (inactive) | > 100 µM (inactive) | > 100 µM (inactive) | > 100 µM (inactive) | > 100 µM (inactive) | > 100 µM (inactive) | > 100 µM (inactive) | > 100 µM (inactive) | > 100 µM (inactive) | > 100 µM (inactive) | > 100 µM (inactive) | 84.3 µM (inactive) | > 100 µM (inactive) | > 100 µM (inactive)
5 | CC(C)/C(Cl)=N\OC(=O)Nc1ccc(S(N)(=O)=O)cc1 | 17.3 µM (inactive) | 17.3 µM (inactive) | 1.75 µM (inactive) | 18.5 µM (inactive) | 5.25 µM (inactive) | 22.4 µM (inactive) | 17.5 µM (inactive) | 2.89 µM (inactive) | 18.2 µM (inactive) | 2.32 µM (inactive) | 21 µM (inactive) | 25 µM (inactive) | 18.3 µM (inactive) | 12.6 µM (inactive) | 16.8 µM (inactive) | 18.7 µM (inactive) | 15.9 µM (inactive) | 9.33 µM (inactive) | 19.5 µM (inactive) | 17.9 µM (inactive)
